Biological target: human Nav1.7 (Homo sapiens (Human), UniProt Q15858)
Experiment: FLIPR or FLIPR TETRA sodium dye assay with KCl and test article pre-incubation
Type: cell-based
Conditions: read-out: Nav1.7 IC50 (μM) ± SEM

Chain of human Nav1.7 (Q15858 other isoform, or with tags, fused parts or gaps): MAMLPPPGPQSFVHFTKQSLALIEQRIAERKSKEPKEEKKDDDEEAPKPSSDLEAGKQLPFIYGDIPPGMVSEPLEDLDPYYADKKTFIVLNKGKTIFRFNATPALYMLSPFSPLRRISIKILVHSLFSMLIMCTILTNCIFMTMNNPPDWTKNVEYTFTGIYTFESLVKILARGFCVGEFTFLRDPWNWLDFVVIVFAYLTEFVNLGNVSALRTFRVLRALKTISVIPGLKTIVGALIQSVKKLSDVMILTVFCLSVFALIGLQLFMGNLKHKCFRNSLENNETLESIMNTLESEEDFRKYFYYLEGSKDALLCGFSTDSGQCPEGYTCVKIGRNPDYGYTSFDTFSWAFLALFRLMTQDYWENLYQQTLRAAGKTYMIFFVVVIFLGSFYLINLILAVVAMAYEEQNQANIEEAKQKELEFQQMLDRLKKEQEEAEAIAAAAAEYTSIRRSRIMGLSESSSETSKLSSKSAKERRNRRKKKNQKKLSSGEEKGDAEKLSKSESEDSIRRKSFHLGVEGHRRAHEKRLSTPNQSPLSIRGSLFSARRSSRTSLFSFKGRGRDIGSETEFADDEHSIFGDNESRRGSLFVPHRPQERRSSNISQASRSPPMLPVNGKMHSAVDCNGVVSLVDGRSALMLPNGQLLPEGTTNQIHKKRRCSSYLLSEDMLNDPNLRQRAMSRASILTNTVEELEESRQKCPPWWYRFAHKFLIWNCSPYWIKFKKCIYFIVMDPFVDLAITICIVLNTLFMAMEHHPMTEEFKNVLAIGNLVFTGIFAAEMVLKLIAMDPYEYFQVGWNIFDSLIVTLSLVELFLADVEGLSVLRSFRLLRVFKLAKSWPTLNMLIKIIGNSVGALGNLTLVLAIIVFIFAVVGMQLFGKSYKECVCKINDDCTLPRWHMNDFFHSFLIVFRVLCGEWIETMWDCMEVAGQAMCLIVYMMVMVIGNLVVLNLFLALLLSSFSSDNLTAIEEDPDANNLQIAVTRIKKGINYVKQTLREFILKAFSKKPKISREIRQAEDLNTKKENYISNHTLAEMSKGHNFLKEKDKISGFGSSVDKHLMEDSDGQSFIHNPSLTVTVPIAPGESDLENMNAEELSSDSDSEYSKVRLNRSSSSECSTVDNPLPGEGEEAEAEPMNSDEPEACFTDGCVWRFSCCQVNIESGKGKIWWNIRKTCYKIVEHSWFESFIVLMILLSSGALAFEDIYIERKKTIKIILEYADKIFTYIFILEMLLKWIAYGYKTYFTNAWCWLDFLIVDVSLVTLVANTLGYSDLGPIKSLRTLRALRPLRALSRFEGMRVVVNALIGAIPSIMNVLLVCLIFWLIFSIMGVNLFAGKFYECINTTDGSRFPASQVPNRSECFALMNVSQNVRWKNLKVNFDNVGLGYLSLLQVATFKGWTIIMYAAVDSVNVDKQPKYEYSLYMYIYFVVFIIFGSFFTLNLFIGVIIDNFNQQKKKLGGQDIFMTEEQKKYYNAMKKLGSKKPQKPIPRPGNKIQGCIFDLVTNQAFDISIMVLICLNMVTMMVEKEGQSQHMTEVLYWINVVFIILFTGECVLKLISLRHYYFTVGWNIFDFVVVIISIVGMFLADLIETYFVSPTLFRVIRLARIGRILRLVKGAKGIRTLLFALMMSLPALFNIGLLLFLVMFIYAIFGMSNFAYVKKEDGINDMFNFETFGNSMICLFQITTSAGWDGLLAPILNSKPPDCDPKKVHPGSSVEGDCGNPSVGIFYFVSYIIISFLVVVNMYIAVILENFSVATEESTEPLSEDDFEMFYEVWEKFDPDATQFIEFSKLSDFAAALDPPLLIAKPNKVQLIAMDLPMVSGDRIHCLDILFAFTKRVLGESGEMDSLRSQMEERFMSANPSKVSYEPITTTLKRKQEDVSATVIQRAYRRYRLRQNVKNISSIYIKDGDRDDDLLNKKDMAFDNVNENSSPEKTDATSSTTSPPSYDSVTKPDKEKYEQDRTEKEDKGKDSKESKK

Row | Compound | IC50 [µM]
1 | N#Cc1cc(Oc2ccc(-c3cccc([C@@H](O)CO)n3)cc2)ccc1C(F)(F)F [compound 14, (R)-5-(4-(6-(1,2-dihydroxyethyl)pyridin-2-yl)phenoxy)-2-(trifluoromethyl) benzonitrile] | 1.3 ± 0.3
2 | N#CCCN(c1ccccc1)c1cc(C(N)=O)nc(-c2ccc(Oc3ccc(F)cc3)cc2)c1 [compound 44, 4-((2-cyanoethyl)(phenyl)amino)-6-(4-(4-fluorophenoxy)phenyl) picolinamide] | 3.29 ± 1.17
3 | Cc1cc(C(=O)NCCN2CCCCC2)cc(-c2ccc(Oc3ccc(F)cc3)cc2)n1 [compound 107, 2-(4-(4-fluorophenoxy)phenyl)-6-methyl-N-(2-(piperidin-1-yl)ethyl) isonicotinamide] | 0.4 ± 0.12
4 | N#Cc1ccc(Oc2ccc(-c3cccc([C@@H](O)CO)n3)cc2)cc1 [compound 13, (R)-4-(4-(6-(1,2-dihydroxyethyl)pyridin-2-yl)phenoxy) benzonitrile] | 0.89 ± 0.08
5 | N#Cc1ccc(Oc2ccc(-c3cc([C@H](O)CO)cc(C(N)=O)n3)cc2)c(C(F)(F)F)c1 [compound 35, (S)-6-(4-(4-cyano-2-(trifluoromethyl)phenoxy)phenyl)-4-(1,2-dihydroxyethyl) picolinamide] | 0.4 ± 0.07

Same assay, conditions: recombinant human Nav1.7 in HEK293 cells; CoroNa Green sodium dye; veratridine + scorpion venom; read-out: Nav1.7 IC50 (μM) ± SEM

Row | Compound | IC50 [µM]
6 | NC(=O)c1cc([C@H](O)CO)cc(-c2ccc(Oc3cccc(OC(F)(F)F)c3)cc2)n1 [compound 163, 4-((S)-1,2-Dihydroxy-ethyl)-6-[4-(3-trifluoromethoxy-phenoxy)phenyl]-pyridine-2-carboxylic acid amide] | 0.63 ± 0.07
7 | NC(=O)c1cc(C[C@@H](O)CO)cc(-c2ccc(Oc3ccc(F)cc3)cc2)n1 [compound 134, (R)-4-(2,3-dihydroxypropyl)-6-(4-(4-fluorophenoxy)phenyl)picolinamide] | 3.9 ± 0.34
8 | NC(=O)c1cc(CNCCN2CCNC2=O)cc(-c2ccc(Oc3ccc(F)cc3)cc2)n1 [compound 60, 6-(4-(4-fluorophenoxy)phenyl)-4-(((2-(2-oxoimidazolidin-1-yl)ethyl)amino)methyl)picolinamide] | 0.16 ± 0.03
9 | NC(=O)c1cc(N(CCC(=O)O)c2ccccc2)cc(-c2ccc(Oc3ccc(F)cc3)cc2)n1 [compound 145, 3-({2-Carbamoyl-6-[4-(4-fluoro-phenoxy)-phenyl]-pyridin-4-yl}phenyl-amino)-propionic acid] | 1.25 ± 0.03
10 | O=C(O)c1cc(C(=O)NCCN2CCCCC2)nc(-c2ccc(Oc3ccc(F)cc3)cc2)c1 [compound 85, 2-(4-(4-fluorophenoxy)phenyl)-6-((2-(piperidin-1-yl)ethyl)carbamoyl)iso nicotinic acid] | 6.59 ± 2.17
11 | N=C(N)N1CCN(c2cc(C(N)=O)nc(-c3ccc(Oc4ccc(F)cc4)cc3)c2)CC1 [compound 80, 4-(4-carbamimidoylpiperazin-1-yl)-6-(4-(4-fluorophenoxy)phenyl)picolinamide] | 1.3 ± 0.17
12 | CC(C)NC(=O)N1CCN(c2cc(C#N)nc(-c3ccc(Oc4ccc(F)cc4)cc3)c2)CC1 [compound 82, 4-(2-cyano-6-(4-(4-fluorophenoxy)phenyl)pyridin-4-yl)-N-isopropylpiperazine-1-carboxamide] | 1.94 ± 0.21
13 | NC(=O)c1cc(N2CCN(C(N)=O)CC2)cc(-c2ccc(Oc3ccc(F)cc3)cc2)n1 [compound 76, 4-(2-carbamoyl-6-(4-(4-fluorophenoxy)phenyl)pyridin-4-yl) piperazine-1-carboxamide] | 0.53 ± 0.07
14 | CN(c1ccccc1)c1cc(C(N)=O)nc(-c2ccc(Oc3ccc(F)cc3)cc2)c1 [compound 43, 6-(4-(4-fluorophenoxy)phenyl)-4-(methyl (phenyl)amino) picolinamide] | 0.93 ± 0.17
15 | NC(=O)CN1CCN(c2cc(Cl)nc(-c3ccc(Oc4ccc(F)cc4)cc3)c2)CC1 [compound 109, 2-(4-(2-chloro-6-(4-(4-fluorophenoxy)phenyl)pyridine-4-yl)piperazin-1-yl) acetamide] | 3.77 ± 0.56
16 | NC(=O)c1cc([C@@H](O)CO)cc(-c2ccc(Oc3ccc(OC(F)(F)F)cc3)cc2)n1 [compound 161, 4-((R)-1,2-Dihydroxy-ethyl)-6-[4-(4-trifluoromethoxy-phenoxy)phenyl]-pyridine-2-carboxylic acid amide] | 1.38 ± 0.2
17 | OCC(O)c1cccc(-c2ccc(Oc3ncccc3C(F)(F)F)cc2)n1 (centres unmarked) [compound 29, 1-(6-(4-((3-(trifluoromethyl)pyridin-2-yl)oxy)phenyl)pyridin-2-yl) ethane-1,2-diol] | 2.65 ± 0.37
18 | NC(=O)c1cc(C(=O)NCCN2CCCCC2)nc(-c2ccc(Oc3ccc(F)cc3)cc2)c1 [compound 81, 6-(4-(4-fluorophenoxy)phenyl)-N2-(2-(piperidin-1-yl)ethyl)pyridine-2,4-dicarboxamide] | 1.46 ± 0.43
19 | O=C(NCCN1CCCCC1)c1cc(-c2nnn[nH]2)cc(-c2ccc(Oc3ccc(F)cc3)cc2)n1 [compound 86, 6-(4-(4-fluorophenoxy)phenyl)-N-(2-(piperidin-1-yl)ethyl)-4-(1H-tetrazol-5-yl) picolinamide] | 9.21 ± 1.15
20 | OC[C@H](O)c1cc(N2CCNCC2)cc(-c2ccc(Oc3ccc(F)cc3)cc2)n1 [compound 21, (R)-1-(6-(4-(4-fluorophenoxy)phenyl)-4-(piperazin-1-yl)pyridin-2-yl)ethane-1,2-diol] | 2.97 ± 0.91
21 | CN(c1ccc(C(=O)O)cc1)c1cc(-c2ccc(Oc3ccc(F)cc3)cc2)cc(C(N)=O)n1 [compound 116, 4-((6-carbamoyl-4-(4-(4-fluorophenoxy)phenyl)pyridin-2-yl) (methyl)amino)benzoic acid] | 2.71 ± 0.73
22 | OCC(O)c1cccc(-c2ccc(Oc3ccc(C(F)(F)F)cn3)cc2)n1 (centres unmarked) [compound 16, 1-(6-(4-((5-(trifluoromethyl)pyridin-2-yl)oxy)phenyl)pyridin-2-yl) ethane-1,2-diol] | 1.71 ± 0.24

Row | Compound | IC50 [µM]
23 | N#Cc1cc(Oc2ccc(-c3cc([C@@H](O)CO)cc(C(N)=O)n3)cc2)ccc1C(F)(F)F [compound 34, (R)-6-(4-(3-cyano-4-(trifluoromethyl)phenoxy)phenyl)-4-(1,2-dihydroxyethyl) picolinamide] | 0.38 ± 0.08
24 | N#Cc1ccc(Oc2ccc(-c3cccc(CNCCN4CCNC4=O)n3)cc2)c(C(F)(F)F)c1 [compound 65, 4-(4-(6-(((2-(2-oxoimidazolidin-1-yl)ethyl)amino)methyl)pyridin-2-yl)phenoxy)-3-(trifluoromethyl) benzonitrile] | 0.12 ± 0.02
25 | O=C(O)c1ccc2ccn(-c3cc(C(=O)O)nc(-c4ccc(Oc5ccc(F)cc5)cc4)c3)c2c1 [compound 130, 1-(2-carboxy-6-(4-(4-fluorophenoxy)phenyl)pyridin-4-yl)-1H-indole-6-carboxylic acid] | 2.47 ± 0.73
26 | CC(C)NC(=O)N1CCN(c2cc(C(N)=O)nc(-c3ccc(Oc4ccc(F)cc4)cc3)c2)CC1 [compound 73, 4-(2-carbamoyl-6-(4-(4-fluorophenoxy)phenyl)pyridin-4-yl)-N-isopropylpiperazine-1-carboxamide] | 0.09 ± 0.03
27 | Cc1ccc(Oc2ccc(-c3cccc(C(O)CO)n3)cc2)cn1 (centres unmarked) [compound 17, 1-(6-(4-((6-methylpyridin-3-yl)oxy)phenyl)pyridin-2-yl)ethane-1,2-diol] | 2.77 ± 0.41
28 | O=C(O)CN(c1ccccc1)c1cc(-c2ccc(Oc3ccc(F)cc3)cc2)cc(C(=O)O)n1 [compound 121, 6-((carboxymethyl) (phenyl)amino)-4-(4-(4-fluorophenoxy)phenyl)picolinic acid] | 6.24 ± 0.81
29 | O=C(NCCN1CCCCC1)c1cc(CO)cc(-c2ccc(Oc3ccc(F)cc3)cc2)n1 [compound 79, 6-(4-(4-fluorophenoxy)phenyl)-4-(hydroxymethyl)-N-(2-(piperidin-1-yl)ethyl)picolinamide] | 0.41 ± 0.03
30 | CC(C)NC(=O)N1CCN(c2cc(-c3ccc(Oc4ccc(F)cc4)cc3)nc([C@@H](O)CO)c2)CC1 [compound 7, (R)-4-(2-(1,2-dihydroxyethyl)-6-(4-(4-fluorophenoxy)phenyl)pyridin-4-yl)-N-isopropyl piperazine-1-carboxamide] | 0.32 ± 0.02
31 | N#CCCN(c1ccccc1)c1cc(-c2ccc(Oc3ccc(F)cc3)cc2)cc(C(=O)O)n1 [compound 94, 6-((2-cyanoethyl) (phenyl)amino)-4-(4-(4-fluorophenoxy)phenyl)picolinic acid] | 2.17 ± 0.66
32 | NC(=O)c1cc(-c2ccc(Oc3ccc(OC(F)(F)F)cc3)cc2)cc([C@@H](O)CO)n1 [compound 157, 6-((R)-1,2-Dihydroxy-ethyl)-4-[4-(4-trifluoromethoxy-phenoxy)phenyl]-pyridine-2-carboxylic acid amide] | 0.12 ± 0.008
33 | NC(=O)c1cc(-c2ccc(Oc3ccc(F)cc3)cc2)cc(N(CCC(=O)O)c2ccccc2)n1 [compound 144, 3-({6-Carbamoyl-4-[4-(4-fluoro-phenoxy)-phenyl]-pyridin-2-yl}phenyl-amino)-propionic acid] | > 20
34 | NC(=O)CN1CCC(CNc2cc(C(N)=O)nc(-c3ccc(Oc4ccc(F)cc4)cc3)c2)CC1 [compound 52, 4-(((1-(2-amino-2-oxoethyl)piperidin-4-yl)methyl)amino)-6-(4-(4-fluorophenoxy)phenyl) picolinamide] | 0.2 ± 0.08
35 | O=C1NCCN1CCNCc1ccnc(-c2ccc(Oc3ccc(F)cc3)cc2)c1 [compound 105, 1-(2-(((2-(4-(4-fluorophenoxy)phenyl)pyridin-4-yl)methyl)amino)ethyl) imidazolidin-2-one] | 0.53 ± 0.08
36 | NC(=O)c1cc(-c2ccc(Oc3cccc(OC(F)(F)F)c3)cc2)cc([C@H](O)CO)n1 [compound 158, 6-((S)-1,2-Dihydroxy-ethyl)-4-[4-(3-trifluoromethoxy-phenoxy)phenyl]-pyridine-2-carboxylic acid amide] | 0.16 ± 0.01
37 | NC(=O)CN(CCN1CCNC1=O)Cc1cccc(-c2ccc(Oc3ccc(F)cc3)cc2)n1 [compound 72, 2-(((6-(4-(4-fluorophenoxy)phenyl)pyridin-2-yl)methyl)(2-(2-oxoimidazolidin-1-yl)ethyl)amino) acetamide] | 0.76 ± 0.03
38 | NC(=O)c1cc(N(CCc2nn[nH]n2)c2ccccc2)cc(-c2ccc(Oc3ccc(F)cc3)cc2)n1 [compound 150, 6-[4-(4-Fluoro-phenoxy)-phenyl]-4-{phenyl-[2-(2H-tetrazol-5-yl)-ethyl]-amino}-pyridine-2-carboxylic acid amide] | 0.46 ± 0.04

— patent publication US9056832B2, “Pyridine compounds and the users thereof” (Purdue Pharma L.P., priority 2010, dated 2015)
